Experiment [1] concerns SF-295. The experiment in a line: Evaluated for growth inhibition (anticancer activity) of Human CNS cancer SF-295 cell line. The experiment is classed as functional.
Experiment [2] deals with NCI-H460. The experiment can be described thus: Evaluated for growth inhibition (anticancer activity) of Human lung-NSC cancer NCI-H460 cell line. The experiment is classed as functional.
Experiment [3] concerns DU-145. The experiment in a line: Evaluated for growth inhibition (anticancer activity) of Human prostate cancer DU-145 cell line. Format: functional.
In experiment [4] the test system is P388. The experiment in a line: Evaluated for growth inhibition (anticancer activity) of Murine P388 lymphocytic leukemia cell line. Format: functional. The note with it: Mus musculus.
The subject of experiment [5] is BXPC-3. The experiment in a line: Evaluated for growth inhibition (anticancer activity) of human pancreas-a BXPC-3 cell line. The experiment is classed as functional.
For experiment [6], the system named is KM-20L2. The experiment can be described thus: Evaluated for growth inhibition (anticancer activity) of Human colon KM20L2 cancer cell line. Format: functional.
Experiment [7] deals with DU-145. The experiment in a line: Evaluated for growth inhibition (anticancer activity) in Human prostate cancer DU-145 cell line. The experiment is classed as functional.
For experiment [8], the system named is RPMI-7951. The experiment can be described thus: Evaluated for growth inhibition (anticancer activity) of Human melanoma cancer RPMI-7951 cell line. The experiment is classed as functional.
The subject of experiment [9] is Micrococcus luteus. The experiment can be described thus: Antimicrobial activity against Micrococcus luteus. Format: functional.
Experiment [10] addresses Tubulin alpha chain (Sus scrofa, UniProt P02550). The experiment in a line: Inhibition of tubulin polymerization. Format: functional.
Experiment [11] concerns the target Tubulin alpha chain (Sus scrofa) (UniProt P02550). The experiment in a line: Inhibition of colchicine binding. Format: functional. Particulars: concentration not given here.
For experiment [12], the system named is NCI-H460. The experiment in a line: Evaluated for growth inhibition (anticancer activity) of Human lung-NSC cancer NCI-H460 cell line.
In experiment [13] the test system is SF-295. The experiment in a line: Evaluated for growth inhibition (anticancer activity) in Human CNS cancer SF-295 cell line. Format: functional.
In experiment [14] the test system is Cryptococcus neoformans. The experiment in a line: Evaluated for antimicrobial activity against Cryptococcus neoformans. The experiment is classed as functional.
The test system of experiment [15] is Stenotrophomonas maltophilia. The experiment can be described thus: Evaluated for antimicrobial activity against Stenotrophomonas maltophilia. Format: functional.
Experiment [16] relates to Candida albicans. The experiment can be described thus: Evaluated for antimicrobial activity against Candida albicans. Format: functional.
Experiment [17] relates to Neisseria gonorrhoeae. The experiment in a line: Evaluated for antimicrobial activity against Neisseria gonorrhoeae. The experiment is classed as functional.
The test system of experiment [18] is Escherichia coli. The experiment in a line: Evaluated for antimicrobial activity against Escherichia coli. The experiment is classed as functional.
Experiment [19] concerns Staphylococcus aureus. The experiment can be described thus: Evaluated for antimicrobial activity against Staphylococcus aureus. The experiment is classed as functional.

Each structure is given as a SMILES string. ≈ marks a conversion by molar mass, not a printed value. A value given as a limit tells only on which side of the number the result lay.

Sequence of Tubulin alpha chain (P02550 whole entry, looked up): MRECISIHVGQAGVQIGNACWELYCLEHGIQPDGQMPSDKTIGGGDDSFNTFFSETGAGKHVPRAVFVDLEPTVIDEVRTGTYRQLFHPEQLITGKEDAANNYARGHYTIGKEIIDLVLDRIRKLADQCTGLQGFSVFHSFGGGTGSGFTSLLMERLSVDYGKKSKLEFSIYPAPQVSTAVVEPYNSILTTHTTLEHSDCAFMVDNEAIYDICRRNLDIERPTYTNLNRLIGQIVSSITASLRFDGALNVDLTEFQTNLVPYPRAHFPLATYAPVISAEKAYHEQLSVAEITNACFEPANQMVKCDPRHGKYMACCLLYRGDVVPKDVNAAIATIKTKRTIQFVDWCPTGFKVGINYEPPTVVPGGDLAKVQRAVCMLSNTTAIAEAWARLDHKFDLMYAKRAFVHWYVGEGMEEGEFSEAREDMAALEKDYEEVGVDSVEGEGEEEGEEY
Sequence of Tubulin alpha chain (Sus scrofa) (P02550 whole entry, looked up): as above

As for `COc1cc(C(=O)c2ccc(OC)c(OC)c2OC)cc(OC)c1OC`, the concentration for 50% growth inhibition (GI50) (usually the concentration giving 50% growth inhibition) in [1] was 23.1 µg/mL (≈ 63.7 µM); in experiment [2] it was 19 µg/mL (≈ 52.4 µM); in [3], 32.5 µg/mL (≈ 89.7 µM); in experiment [4] it was more than 10 µg/mL; in [5] it was 14.2 µg/mL (≈ 39.2 µM).
As to `COc1ccc(/C=C\c2cc(OC)c(OC)c(OC)c2)cc1O` [COMBRETASTATIN A4], the GI50 in experiment [1] was more than 0.001 µg/mL; in experiment [6], 0.34 µg/mL (≈ 1.07 µM); in experiment [2], 0.0006 µg/mL (≈ 0.0019 µM); in experiment [3] it was 0.0008 µg/mL (≈ 0.00253 µM); in experiment [4], 0.0003 µg/mL (≈ 0.000948 µM); in experiment [5], 0.39 µg/mL (≈ 1.23 µM).
As to `COc1cc(/C=C\c2ccc(OC)c(OP(=O)([O-])[O-])c2OP(=O)([O-])[O-])cc(OC)c1OC.[Na+].[Na+].[Na+].[Na+]`, the GI50 in experiment [1] was 0.036 µg/mL; in experiment [2] it was 0.038 µg/mL; in [7] it was 0.034 µg/mL; in experiment [4], less than 0.01 µg/mL; in experiment [5] it was 1.5 µg/mL.
`COc1cc(C(=O)c2ccc(OC)c(OP(=O)(OCc3ccccc3)OCc3ccccc3)c2OP(=O)(OCc2ccccc2)OCc2ccccc2)cc(OC)c1OC`: the GI50 was more than 10 µg/mL in experiment [1]; 5.9 µg/mL (≈ 6.9 µM) in experiment [6]; more than 10 µg/mL in experiment [8]; more than 10 µg/mL in [2]; more than 10 µg/mL in experiment [3]; 2.55 µg/mL (≈ 2.98 µM) in experiment [4]. For the same compound, the concentration for 50% growth inhibition (GI50) in [5] is more than 10 µg/mL. For the same compound, in experiment [9], the MIC came to 50 µg/mL (≈ 58.5 µM).
Take `COc1ccc(/C=C\c2cc(OC)c(OC)c(OC)c2)c(O)c1O` [COMBRETASTATIN A-1]: the GI50 in experiment [6] is 0.061 µg/mL (≈ 0.184 µM); in experiment [3] it was 0.17 µg/mL (≈ 0.512 µM); in experiment [4], 0.3 µg/mL (≈ 0.903 µM); in experiment [5], 4.4 µg/mL (≈ 13.2 µM); in experiment [12], 0.74 µg/mL (≈ 2.23 µM). Further, the IC50 (usually the concentration needed to halve the response being measured) in experiment [10] amounted to 1100 nM. Besides, the inhibition – broadly, the share of the control response that was lost under treatment – in [11] worked out at 99.6%.
`COc1ccc(/C=C\c2cc(OC)c(OC)c(OC)c2)cc1OP(=O)([O-])[O-].[Na+].[Na+]` [FOSBRETABULIN DISODIUM]: the concentration for 50% growth inhibition (GI50) in experiment [6] worked out at 0.53 µg/mL; in experiment [4], 0.0004 µg/mL; in experiment [13], 0.036 µg/mL; in experiment [12], 0.029 µg/mL. The 50% inhibitory concentration (IC50) in [10] was more than 40000 nM.
For `COc1cccc(C=O)c1OC(C)=O`, the MIC in experiment [14] was determined as 25 ug disk-1; in experiment [15], 50 ug disk-1.
As to `COc1ccc(C(=O)c2cc(OC)c(OC)c(OC)c2)c(O)c1O` [HYDROXYPHENSTATIN], the GI50 came to 0.04 µg/mL (≈ 0.12 µM) in [1]; 0.58 µg/mL (≈ 1.73 µM) in experiment [8]; 0.21 µg/mL (≈ 0.628 µM) in [2]; 0.048 µg/mL (≈ 0.144 µM) in [3]; 0.315 µg/mL (≈ 0.942 µM) in experiment [4]; 3.5 µg/mL (≈ 10.5 µM) in experiment [5]. In [10], half-maximal inhibition (IC50) was put at 820 nM. Moreover, the inhibition in experiment [11] came to 77%.
Take `COc1ccc(Br)c(C=O)c1O`: the values for the MIC in experiment [16], in experiment [14] and in experiment [17] were 50 ug disk-1, 12.5 ug disk-1 and 12.5 ug disk-1, respectively.
With `COc1cc(C(=O)c2ccc(OC)c(OP(=O)([O-])[O-])c2OP(=O)([O-])[O-])cc(OC)c1OC.[Na+].[Na+].[Na+].[Na+]`, the GI50 was 0.23 µg/mL in experiment [1]; 33.5 µg/mL in [6]; 0.35 µg/mL in experiment [2]; 0.3 µg/mL in experiment [3]; 0.0336 µg/mL in experiment [4]; 5.3 µg/mL in experiment [5]. For the same compound, the IC50 in [10] is more than 40000 nM.
With `COCOc1c(OC)ccc(C(=O)c2cc(OC)c(OC)c(OC)c2)c1OCOC`, the GI50 in experiment [1], in experiment [8], in experiment [2], in experiment [3], in experiment [4] and in [5] was more than 10 µg/mL each time. The compound further displayed an inhibition in [11] of more than 10%.
For `COc1ccc(Br)c(C=O)c1OC(C)=O`, the MIC in experiment [16] came to 12.5 ug disk-1; in experiment [14], 6.25 ug disk-1; in experiment [18], 50 ug disk-1; in [17], 25 ug disk-1.
As for `COc1ccc(Br)c(O)c1O`, the MIC in experiment [18] is listed as 50 ug disk-1; in experiment [17], less than 6.25 ug disk-1; in [19], 25 ug disk-1; in [15], 25 ug disk-1.

These data come from ChEMBL document CHEMBL1133024, “Antineoplastic agents. 443. Synthesis of the cancer cell growth inhibitor hydroxyphenstatin and its sodium diphosphate prodrug” (J Med Chem, 2000).
